Read-outs that look alike come from different tables or passages of the source.
Legend:
Type in all cases: cell-based, human
[1] = test system: pERK, NCI-H358 cells; test: Phospho-ERK inhibition, AlphaLISA p-ERK 1/2, NCI-H358; settings: Table D-2; for IC50: NCI-H358 (KRAS-G12C); for pERK value in parentheses, % inhibition (Ymin): NCI-H358, lowest point of IC50 curve
Method: (§1) All cancer cell lines (A375, A101D, A2058, RKO, HT29 SK-MEL 30, IPC298, HepG2, HCT-116, Lovo, SW620, SW480, NCI-H358, NCI-H2122, Calu-6, NCIH2087, NCIH1755, NCIH1666 and Mewo) were obtained from ATCC and cultured in RPM1-1640 medium (Gibco) supplemented with 5% heat inactivated fetal bovine serum (FBS, Wisent) at 37° C. under 5% CO2. Cells were maintained in T175 flasks (Greiner). They were passaged by removing the culture medium, washing once in 10 mL of room temperature Phosphate Buffered Saline (PBS; Wisent) and incubating at 37° C. with 2 mL of 0.05% Trypsin (Thermo-Fisher). Trypsin was then inactivated by adding complete growth medium and the cells were then replated in a T175 culture dish at the appropriate dilution. All cell lines were routinely tested for mycoplasma contamination. Tissue type and mutational status of each cell line can be found in Table B.
(§2) (c) Measurement of Phospho-ERK Inhibition in Cultivated Human Cancer Cell Lines by the AlphaLISA® SureFire® Ultra™ p-ERK 1/2 (Thr2O2/Tyr204)
(§3) AlphaLISA® SureFire® Ultra™ p-ERK 1/2 (Thr202/Tyr204) analysis was conducted on cells plated in 100 μL of complete RPMI-1640 growth medium in 96-well flat-bottomed transparent dishes (Costar) at a density indicated in Table C. Cells were maintained overnight at 37° C. under 5% CO2 before treatment with compounds' dilution series for one hour. The cell density in cells/cm^2 corresponds to cell number divided by the area of one well of a 96-well plate (0.143 cm^2).
(§4) In a dilution series 100 μL/well of test substance dilution prepared in complete RPMI-1640 growth media was added to the cells. The dilution series is selected so that ten concentrations cover a range from 10 μM to 0.33 nM. If necessary, the initial concentration of 10 μM is increased to 100 μM or lowered to 1 μM (as in the case of A375 and H1666 cells, which are generally more sensitive to the compounds) and further dilution is carried out accordingly. The final concentration of DMSO in the assay is set at 0.5%.
(§5) After treatment, media was removed, and cells were lysed in 50 μL of 1× AlphaScreen Ultra Lysis Buffer (Perkin Elmer). The AlphaLISA® SureFire® Ultra™ p-ERK 1/2 (Thr202/Tyr204) (PerkinElmer) reactions were performed with 5 μL of cell lysate according to the manufacturer's specifications in 384-well proxyplates (Perkin Elmer) followed by overnight incubation of the reactions at room temperature in a humidified chamber. After completion of the reactions, the signals were recorded on an EnVision plate reader (Perkin Elmer) using built in AlphaLISA® settings.
(§6) The effect of each compound dilution on the pERK signal was expressed in % inhibition and calculated as follows. An internal 100% inhibition control (1 μM trametinib, cat. No. HY-10999; MedChem Express; CAS No. 871700-17-3) was included in each plate and used as a measure of pERK background. First, the value obtained for trametinib was subtracted from each data point. The average of DMSO (vehicle) controls (set as 0% inhibition) was established and used to calculate % inhibition:
(§7) The ability of each compound to inhibit pERK signal was expressed as an IC50 value obtained by plotting the inhibition values for each data point of a dilution series and fitting the obtained curves using a log(agonist) versus response—variable slope (four parameters) function using GraphPadPrism (V7.0) or Dotmatics Screening Ultra platform.
(§8) When present, paradoxical pERK induction is inferred from the negative % inhibition values observed in the pERK IC50 curves of a compound.

[2] = test system: HepG2 cells; test: Proliferation inhibition, CellTiter-Glo, HepG2; settings: Table D-1, HepG2 (NRAS-Q61L), 3 days, read-out: Prolif. (proliferation EC50)
Method: as §1
(§9) CellTiter-Glo® viability analysis was conducted on cells plated in 100 μL of complete RPMI-1640 growth medium in 96-well flat-bottomed white opaque plates (Greiner or Croning) at a density indicated in Table E (for each CCL, number of cells plated per well of a 96-well plate to perform the CellTiter-Glo® cell viability assay). The cell density in cells/cm^2 would correspond to cell number divided by the area of one well of a 96-well plate (0.32 cm^2). […]
(§10) After 3 days of incubation, the growth media were removed by aspiration and 60 μL of diluted CellTiter-Glo® reagent (10 μL CellTiter-Glo® reagent+50 μL of PBS) was added to each well. […] Luminescence signals were then acquired on a Synergy Neo2 plate reader (Biotek).
(§11) The effect of each compound dilution on the proliferation of cancer cell lines was expressed in % inhibition and calculated as follows. […]
as §7, with “proliferation” for “pERK signal”, “a EC50” for “an IC50”, “effect” for “inhibition”

[3] = test system: pERK, Lovo cells; test: Phospho-ERK inhibition, AlphaLISA p-ERK 1/2, Lovo; settings: Table D-2; for IC50: Lovo (KRAS-G13D); for pERK value in parentheses, % inhibition (Ymin): Lovo, lowest point of IC50 curve
Method: as §1, §2, §3, §4, §5, §6, §7, §8

[4] = test system: pERK, Calu6 cells; test: Phospho-ERK inhibition, AlphaLISA p-ERK 1/2, Calu-6; settings: Table D-2; for IC50: Calu6 (KRAS Q61K); for pERK value in parentheses, % inhibition (Ymin): Calu6, lowest point of IC50 curve
Method: as §1, §2, §3, §4, §5, §6, §7, §8

[5] = test system: HT-29 cells; test: Proliferation inhibition, CellTiter-Glo, HT-29; settings: Table D-1, HT-29 (BRAF V600E), 3 days, read-out: Prolif. (proliferation EC50)
Method: as §1, §9, §10, §11
as §7, with “proliferation” for “pERK signal”, “a EC50” for “an IC50”, “effect” for “inhibition”

Row | Compound | IC50 ([1]; Homo sapiens) | pERK value in parentheses, % inhibition (Ymin) [1] | EC50 ([2]; Homo sapiens, 72 h) | IC50 ([3]; Homo sapiens) | pERK value in parentheses, % inhibition (Ymin) [3] | IC50 ([4]; Homo sapiens, Calu-6) | pERK value in parentheses, % inhibition (Ymin) [4] | EC50 ([5]; Homo sapiens, 72 h) | IC50 [1] | EC50 [2] | IC50 [3] | IC50 [4] | EC50 [5]
1 | Cc1ccc2c(Nc3cccc(Cl)c3F)nccc2c1NC(=O)c1csc2c(N)ncnc12 [Belvarafenib, reference compound] | 30 to 300 nM | (−122) % | < 300 nM | < 30 nM | (−12) % | 30 to 300 nM | (−39) % | < 300 nM |  |  |  |  | 
2 | Cc1c(F)cccc1S(=O)(=O)Nc1ccc(F)c(Nc2ncnc3sc(-n4cc(C(=O)N5C6CCC5CN(C)C6)c5ccccc54)nc23)c1F [Example 44] |  | (1) % |  |  | (−10) % |  | (−12) % |  | 30 to 300 nM | < 300 nM | 30 to 300 nM | < 30 nM | < 300 nM
3 | N#CC1(c2cccc3c2ncn3-c2nc3c(Nc4c(F)ccc(NS(=O)(=O)c5cccc(Cl)c5Cl)c4F)ncnc3s2)CC1 [Example 122] |  | (−3) % |  |  | (13) % |  | (−8) % |  | 30 to 300 nM | < 300 nM | 30 to 300 nM | 30 to 300 nM | < 300 nM
